Assay results: ChEMBL document CHEMBL5113550, “Optimization of Pyrimidine Compounds as Potent JAK1 Inhibitors and the Discovery of R507 as a Clinical Candidate” (ACS Med Chem Lett, 2022)

Tests used:
[1] = Inhibition of IL-2 stimulated IFN-gamma production in BALB/c mouse at 40 mg/kg, po pretreated for 30 mins followed by IL-2 stimulation and measured after 4 hrs by ELISA; format: functional; conditions: time 4.5 hrs
[2] = target: T1, Tyrosine-protein kinase SYK (Homo sapiens, UniProt P43405); assay: Inhibition of SYK (unknown origin) assessed as reduction of IgM-stimulated ERK phosphorylation by Cell-based assay
[3] = species on record: Homo sapiens; assay: Selectivity ratio of IC50 for inhibition of JAK2 signaling pathway in EPO-stimulated human CHEP cells to IC50 for inhibition of JAK1/JAK3 in human primary T-cells assessed as reduction of IL-2 stimulated STAT5 phosphorylation
[4] = target: T1, Tyrosine-protein kinase SYK; assay: Inhibition of human full length recombinant N-terminal GST-tagged SYK expressed in baculovirus expression system at 250 nM by Z'-lyte assay
[5] = target: T2, Tyrosine-protein kinase JAK2 (Homo sapiens, UniProt O60674); assay: Inhibition of JAK2 signaling pathway in human CHEP cells assessed as inhibition of EPO-induced cell survival preincubated for 1 hr followed by EPO addition and measured after 48 hrs by CellTiter-Glo luminescent assay; format: toxicity, cell-based
[6] = Inhibition of IL-2 stimulated IFN-gamma production in BALB/c mouse at 5 mg/kg, po pretreated for 30 mins followed by IL-2 stimulation and measured after 4 hrs by ELISA; format: functional; conditions: time 4.5 hrs
[7] = target: T3, Cytochrome P450 3A4 (Homo sapiens, UniProt P08684); assay: Inhibition of CYP3A4 (unknown origin) in absence of NADPH; format: ADME
[8] = target: T4, JAK3/JAK1 (Homo sapiens, UniProt P23458+P52333); assay: Inhibition of JAK1/JAK3 in human primary T-cells assessed as reduction of IL-2 stimulated STAT5 phosphorylation preincubated for 1 hr followed by IL-2 stimulation for 15 mins by FACS method; format: cell-based, T-cell
[9] = target: T3, Cytochrome P450 3A4; assay: Inhibition of CYP3A4 (unknown origin) in presence of NADPH; format: ADME
[10] = Plasma protein binding in rat; format: ADME, cell-free; conditions: read-out: PPB (converted)
[11] = Oral bioavailability in Sprague-Dawley rat 5 mg/kg; format: ADME, organism-based; conditions: in vivo
[12] = Plasma protein binding in human; format: ADME, cell-free; conditions: read-out: PPB (converted)
[13] = target: T5, Cytochrome P450 1A2 (Homo sapiens, UniProt P05177); assay: Inhibition of CYP1A2 (unknown origin); format: ADME
T5 sequence (P05177 whole entry): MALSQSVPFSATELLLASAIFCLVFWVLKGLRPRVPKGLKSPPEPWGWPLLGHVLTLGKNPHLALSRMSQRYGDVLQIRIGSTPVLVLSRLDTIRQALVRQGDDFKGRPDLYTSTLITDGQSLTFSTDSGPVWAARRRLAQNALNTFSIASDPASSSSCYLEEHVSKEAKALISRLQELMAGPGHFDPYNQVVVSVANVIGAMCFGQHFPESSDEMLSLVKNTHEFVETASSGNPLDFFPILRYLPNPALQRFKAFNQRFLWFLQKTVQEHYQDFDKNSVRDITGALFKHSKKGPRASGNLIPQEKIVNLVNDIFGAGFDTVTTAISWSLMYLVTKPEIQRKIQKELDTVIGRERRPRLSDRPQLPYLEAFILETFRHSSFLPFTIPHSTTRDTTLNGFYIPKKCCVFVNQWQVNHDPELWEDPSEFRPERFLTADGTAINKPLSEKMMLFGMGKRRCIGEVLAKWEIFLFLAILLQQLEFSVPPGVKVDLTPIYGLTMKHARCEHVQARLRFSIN

[14] = Inhibition of IL-2 stimulated IFN-gamma production in BALB/c mouse at 20 mg/kg, po pretreated for 30 mins followed by IL-2 stimulation and measured after 4 hrs by ELISA; format: functional; conditions: time 4.5 hrs
[15] = Inhibition of IL-2 stimulated IFN-gamma production in BALB/c mouse at 2.5 mg/kg, po pretreated for 30 mins followed by IL-2 stimulation and measured after 4 hrs by ELISA; format: functional; conditions: time 4.5 hrs
[16] = target: JAK1/TYK2 (Homo sapiens, UniProt P23458+P29597); assay: Inhibition of JAK1/TYK2 signaling pathway in human primary T-cells assessed as reduction of IFN-alpha induced STAT1 phosphorylation; format: cell-based, T-cell
[17] = target: T2, Tyrosine-protein kinase JAK2; assay: Inhibition of JAK2 signaling pathway in human UKE-1 cells assessed as reduction of cell proliferation; format: toxicity, cell-based
[18] = target: JAK2/JAK1 (Homo sapiens, UniProt O60674+P23458); assay: Inhibition of JAK1/JAK2 signaling pathway in human U-937 cells assessed as reduction of IFN-gamma induced ICAM1 expression; format: cell-based
[19] = target: T6, Tyrosine-protein kinase JAK3 (Homo sapiens, UniProt P52333); assay: Inhibition of human recombinant GST-tagged JAK3 catalytic domain (781 to 1124 residues) expressed in baculovirus expression system by Z'-lyte assay
T6 sequence (P52333 whole entry): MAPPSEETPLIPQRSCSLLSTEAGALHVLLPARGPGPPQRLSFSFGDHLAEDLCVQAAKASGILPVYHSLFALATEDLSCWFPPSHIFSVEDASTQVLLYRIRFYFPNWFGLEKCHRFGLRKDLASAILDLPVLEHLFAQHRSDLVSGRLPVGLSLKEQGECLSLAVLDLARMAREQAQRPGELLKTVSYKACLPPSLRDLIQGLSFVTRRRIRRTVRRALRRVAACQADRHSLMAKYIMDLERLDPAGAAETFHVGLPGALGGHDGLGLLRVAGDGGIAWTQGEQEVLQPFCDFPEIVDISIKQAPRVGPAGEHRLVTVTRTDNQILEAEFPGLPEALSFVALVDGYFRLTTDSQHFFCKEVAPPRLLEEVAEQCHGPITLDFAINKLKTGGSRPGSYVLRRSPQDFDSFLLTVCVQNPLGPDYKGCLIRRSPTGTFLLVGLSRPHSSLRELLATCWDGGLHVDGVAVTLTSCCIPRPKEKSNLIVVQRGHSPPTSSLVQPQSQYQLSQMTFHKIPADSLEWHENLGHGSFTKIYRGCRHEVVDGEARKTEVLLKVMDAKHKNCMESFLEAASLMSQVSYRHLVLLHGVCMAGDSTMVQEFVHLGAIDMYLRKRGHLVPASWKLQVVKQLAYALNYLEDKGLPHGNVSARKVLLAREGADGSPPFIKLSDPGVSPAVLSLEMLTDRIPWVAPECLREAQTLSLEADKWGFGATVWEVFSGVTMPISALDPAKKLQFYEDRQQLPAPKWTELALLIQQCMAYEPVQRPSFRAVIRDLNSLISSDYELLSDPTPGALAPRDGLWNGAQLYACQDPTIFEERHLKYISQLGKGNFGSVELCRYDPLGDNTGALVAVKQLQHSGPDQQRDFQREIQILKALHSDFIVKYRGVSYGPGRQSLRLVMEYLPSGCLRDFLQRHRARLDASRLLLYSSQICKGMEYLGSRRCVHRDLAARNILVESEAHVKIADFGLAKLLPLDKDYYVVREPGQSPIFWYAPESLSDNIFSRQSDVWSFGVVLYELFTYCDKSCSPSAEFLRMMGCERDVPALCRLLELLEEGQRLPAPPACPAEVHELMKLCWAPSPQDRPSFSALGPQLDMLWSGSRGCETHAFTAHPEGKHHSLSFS

[20] = target: T2, Tyrosine-protein kinase JAK2; assay: Inhibition of human recombinant GST-tagged JAK2 catalytic domain (809 to 1153 residues) expressed in baculovirus expression system by Z'-lyte assay; format: toxicity
[21] = Inhibition of IL-2 stimulated IFN-gamma production in BALB/c mouse at 10 mg/kg, po pretreated for 30 mins followed by IL-2 stimulation and measured after 4 hrs by ELISA; format: functional; conditions: time 4.5 hrs
[22] = target: Tyrosine-protein kinase JAK1 (Homo sapiens, UniProt P23458); assay: Inhibition of human recombinant GST-tagged JAK1 catalytic domain (866 to 1154 residues) expressed in baculovirus expression system by Z'-lyte assay
[23] = target: T4, JAK3/JAK1; assay: Inhibition of JAK1/JAK3 signaling pathway in human primary T-cells assessed as reduction of IL-2 induced cell proliferation; format: cell-based
[24] = target: Non-receptor tyrosine-protein kinase TYK2 (Homo sapiens, UniProt P29597); assay: Inhibition of human recombinant N-terminal GST-tagged TYK2 (833 to 1187 residues) expressed in baculovirus expression system by Z'-lyte assay
[25] = target: JAK2/TYK2 (Homo sapiens, UniProt O60674+P29597); assay: Inhibition of JAK2/TYK2 signaling pathway in human primary T-cells assessed as reduction of IL-12 induced STAT4 phosphorylation; format: cell-based, T-cell
[26] = target: T4, JAK3/JAK1; assay: Inhibition of JAK1/JAK3 signaling pathway in human whole blood assessed as reduction of IL-2 induced STAT5 phosphorylation; format: tissue-based
[27] = Clearance in Sprague-Dawley rat 1 mg/kg, iv; format: ADME, organism-based; conditions: in vivo

T3 sequence (P08684 whole entry): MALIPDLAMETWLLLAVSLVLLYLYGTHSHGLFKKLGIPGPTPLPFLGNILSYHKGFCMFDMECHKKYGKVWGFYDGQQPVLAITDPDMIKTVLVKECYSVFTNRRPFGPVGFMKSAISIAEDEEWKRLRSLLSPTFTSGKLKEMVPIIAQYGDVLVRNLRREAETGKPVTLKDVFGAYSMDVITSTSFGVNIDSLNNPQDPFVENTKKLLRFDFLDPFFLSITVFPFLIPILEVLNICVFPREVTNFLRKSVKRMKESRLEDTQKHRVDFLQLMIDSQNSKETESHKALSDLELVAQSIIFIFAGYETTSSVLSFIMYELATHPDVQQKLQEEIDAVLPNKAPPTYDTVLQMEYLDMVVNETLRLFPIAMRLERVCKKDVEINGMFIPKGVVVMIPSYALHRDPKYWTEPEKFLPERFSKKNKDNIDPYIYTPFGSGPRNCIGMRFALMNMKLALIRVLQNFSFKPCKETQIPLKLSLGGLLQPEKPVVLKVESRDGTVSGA
T2 sequence (O60674 whole entry): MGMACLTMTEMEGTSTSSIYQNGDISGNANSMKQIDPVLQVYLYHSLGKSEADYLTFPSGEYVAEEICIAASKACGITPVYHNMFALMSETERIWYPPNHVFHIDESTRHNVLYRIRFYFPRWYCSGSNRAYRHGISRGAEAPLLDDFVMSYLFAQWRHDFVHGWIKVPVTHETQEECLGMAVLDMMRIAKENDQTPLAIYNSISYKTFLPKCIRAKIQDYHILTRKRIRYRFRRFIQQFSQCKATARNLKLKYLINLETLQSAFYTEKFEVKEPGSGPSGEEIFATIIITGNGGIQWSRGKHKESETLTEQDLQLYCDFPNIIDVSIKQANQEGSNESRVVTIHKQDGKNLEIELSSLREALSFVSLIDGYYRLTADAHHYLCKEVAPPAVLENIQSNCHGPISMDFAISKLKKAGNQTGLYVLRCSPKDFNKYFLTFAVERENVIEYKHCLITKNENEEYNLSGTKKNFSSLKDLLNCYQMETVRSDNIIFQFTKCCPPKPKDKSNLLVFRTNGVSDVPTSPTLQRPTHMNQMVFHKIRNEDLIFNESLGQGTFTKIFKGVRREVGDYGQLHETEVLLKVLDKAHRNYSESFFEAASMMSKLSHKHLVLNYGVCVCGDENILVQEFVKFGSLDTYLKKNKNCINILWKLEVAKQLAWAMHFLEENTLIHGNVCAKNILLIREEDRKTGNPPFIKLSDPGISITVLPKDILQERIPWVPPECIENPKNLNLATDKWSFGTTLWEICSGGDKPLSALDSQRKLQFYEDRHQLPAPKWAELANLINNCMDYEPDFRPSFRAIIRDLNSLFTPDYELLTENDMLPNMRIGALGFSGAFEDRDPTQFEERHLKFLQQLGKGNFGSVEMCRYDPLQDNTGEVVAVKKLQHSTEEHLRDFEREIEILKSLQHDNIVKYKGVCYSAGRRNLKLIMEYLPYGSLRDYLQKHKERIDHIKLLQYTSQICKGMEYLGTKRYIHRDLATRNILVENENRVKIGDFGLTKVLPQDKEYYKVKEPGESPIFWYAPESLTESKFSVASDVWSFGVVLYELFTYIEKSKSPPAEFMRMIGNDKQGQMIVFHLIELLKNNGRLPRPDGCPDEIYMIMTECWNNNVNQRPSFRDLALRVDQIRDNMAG
T4 sequence (P23458 whole entry, one chain of several): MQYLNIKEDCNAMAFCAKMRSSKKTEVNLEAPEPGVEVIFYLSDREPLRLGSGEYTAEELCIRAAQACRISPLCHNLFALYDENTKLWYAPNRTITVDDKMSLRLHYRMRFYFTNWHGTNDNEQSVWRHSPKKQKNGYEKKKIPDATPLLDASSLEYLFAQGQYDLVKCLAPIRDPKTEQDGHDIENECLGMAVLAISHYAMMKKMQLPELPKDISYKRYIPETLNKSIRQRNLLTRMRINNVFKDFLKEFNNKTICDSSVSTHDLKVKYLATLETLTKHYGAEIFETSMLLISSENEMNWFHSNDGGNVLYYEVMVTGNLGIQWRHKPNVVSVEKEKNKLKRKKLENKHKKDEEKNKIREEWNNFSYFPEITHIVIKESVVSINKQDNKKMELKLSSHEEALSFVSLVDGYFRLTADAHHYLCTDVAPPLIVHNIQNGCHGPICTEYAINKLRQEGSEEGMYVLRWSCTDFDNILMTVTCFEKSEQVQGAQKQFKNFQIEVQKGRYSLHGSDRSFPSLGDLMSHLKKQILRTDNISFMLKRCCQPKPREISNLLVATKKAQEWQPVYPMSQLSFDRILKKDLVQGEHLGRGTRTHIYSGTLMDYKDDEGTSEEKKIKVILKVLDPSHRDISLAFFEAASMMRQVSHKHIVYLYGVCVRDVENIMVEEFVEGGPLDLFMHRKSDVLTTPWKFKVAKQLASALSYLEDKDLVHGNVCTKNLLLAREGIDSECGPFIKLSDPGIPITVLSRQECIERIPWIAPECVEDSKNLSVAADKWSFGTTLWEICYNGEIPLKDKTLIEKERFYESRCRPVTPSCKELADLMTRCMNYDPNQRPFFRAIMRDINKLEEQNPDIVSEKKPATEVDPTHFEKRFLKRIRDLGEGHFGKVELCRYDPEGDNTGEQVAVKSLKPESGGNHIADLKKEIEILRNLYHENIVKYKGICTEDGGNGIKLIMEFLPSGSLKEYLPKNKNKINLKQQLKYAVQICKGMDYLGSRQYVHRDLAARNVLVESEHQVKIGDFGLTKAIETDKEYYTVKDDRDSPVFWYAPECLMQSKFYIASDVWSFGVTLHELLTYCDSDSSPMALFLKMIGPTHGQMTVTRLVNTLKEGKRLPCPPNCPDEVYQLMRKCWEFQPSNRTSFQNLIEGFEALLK
Chain of JAK2/TYK2 (O60674 whole entry): as the sequence (O60674 whole entry) above
Chain of JAK2/TYK2 (P29597 whole entry): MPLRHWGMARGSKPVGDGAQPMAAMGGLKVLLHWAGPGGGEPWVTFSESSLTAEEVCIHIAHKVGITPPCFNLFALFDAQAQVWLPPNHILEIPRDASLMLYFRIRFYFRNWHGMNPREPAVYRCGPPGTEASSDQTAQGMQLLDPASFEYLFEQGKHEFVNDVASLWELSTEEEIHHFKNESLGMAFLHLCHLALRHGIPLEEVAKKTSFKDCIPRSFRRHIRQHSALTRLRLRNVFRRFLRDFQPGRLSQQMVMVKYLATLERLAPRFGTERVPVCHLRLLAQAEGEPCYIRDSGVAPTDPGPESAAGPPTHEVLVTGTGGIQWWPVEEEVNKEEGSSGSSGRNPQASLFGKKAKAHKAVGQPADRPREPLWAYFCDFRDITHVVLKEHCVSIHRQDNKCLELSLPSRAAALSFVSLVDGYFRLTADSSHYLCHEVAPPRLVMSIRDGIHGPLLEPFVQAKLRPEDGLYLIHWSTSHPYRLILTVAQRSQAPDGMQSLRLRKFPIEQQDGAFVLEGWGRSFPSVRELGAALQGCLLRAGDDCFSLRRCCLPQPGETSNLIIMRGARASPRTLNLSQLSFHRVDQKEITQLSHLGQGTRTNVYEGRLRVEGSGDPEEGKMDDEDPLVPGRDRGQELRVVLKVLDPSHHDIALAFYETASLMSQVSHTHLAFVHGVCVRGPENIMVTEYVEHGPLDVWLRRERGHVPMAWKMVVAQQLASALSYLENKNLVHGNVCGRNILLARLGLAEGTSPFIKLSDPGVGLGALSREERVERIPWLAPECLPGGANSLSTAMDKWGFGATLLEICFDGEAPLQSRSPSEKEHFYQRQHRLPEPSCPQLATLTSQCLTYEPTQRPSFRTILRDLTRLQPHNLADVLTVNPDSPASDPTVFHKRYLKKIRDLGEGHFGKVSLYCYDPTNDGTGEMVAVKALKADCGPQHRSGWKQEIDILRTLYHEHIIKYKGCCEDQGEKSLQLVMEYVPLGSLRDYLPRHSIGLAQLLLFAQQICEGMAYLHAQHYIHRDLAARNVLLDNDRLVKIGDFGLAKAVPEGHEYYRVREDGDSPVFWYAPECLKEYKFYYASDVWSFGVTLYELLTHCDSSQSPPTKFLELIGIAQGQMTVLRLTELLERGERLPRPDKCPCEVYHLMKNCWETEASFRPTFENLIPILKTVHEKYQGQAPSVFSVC
Chain of Non-receptor tyrosine-protein kinase TYK2 (P29597 whole entry, the tested form may be a part): as the sequence (P29597 whole entry) above
Chain of JAK1/TYK2 (P23458 whole entry): as the sequence (P23458 whole entry, one chain of several) above
Chain of JAK1/TYK2 (P29597 whole entry): as the sequence (P29597 whole entry) above
Chain of Tyrosine-protein kinase JAK1 (P23458 whole entry, the tested form may be a part): as the sequence (P23458 whole entry, one chain of several) above
Chain of JAK2/JAK1 (P23458 whole entry, the tested form may be a part): as the sequence (P23458 whole entry, one chain of several) above
Chain of JAK2/JAK1 (O60674 whole entry, the tested form may be a part): as the sequence (O60674 whole entry) above

**Q.** Which inhibition in vivo at 40 mg/kg [1] does the source give for `Cc1cnc(Nc2ccc(NS(C)(=O)=O)cc2)nc1Nc1ccc2oc(=O)[nH]c2c1` here?
**A.** 8%

**Q.** Which inhibition in vivo at 40 mg/kg [1] does the source give for `Cc1cnc(Nc2cccc(S(N)(=O)=O)c2)nc1Nc1ccc2oc(=O)[nH]c2c1` here?
**A.** 30%

**Q.** And the IC50 [2]?
**A.** 5000 nM

**Q.** For `COc1cc(Nc2ncc(C)c(Nc3ccc4oc(=O)[nH]c4c3)n2)cc(C)c1F`, which Ratio IC50 [3] is on record?
**A.** 24

**Q.** And the inhibition [4]?
**A.** < 50%

**Q.** For `COc1cc(Nc2ncc(C)c(Nc3ccc4oc(=O)[nH]c4c3)n2)cc(OC)c1`, which IC50 [5] is on record?
**A.** 132 nM

**Q.** With `Cc1cnc(Nc2ccc(N3CCN(C)CC3)nc2)nc1Nc1ccc2oc(=O)[nH]c2c1` as the compound, how does the Ratio IC50 [3] read?
**A.** 4

**Q.** What about the inhibition in vivo at 5 mg/kg [6] of the same compound?
**A.** 30%

**Q.** What about the IC50 [5] of the same compound?
**A.** 84 nM

**Q.** And the IC50 [7]?
**A.** > 10000 nM

**Q.** And the IC50 [8]?
**A.** 20 nM

**Q.** What about the inhibition in vivo at 40 mg/kg [1] of the same compound?
**A.** 82%

**Q.** And the IC50 [9]?
**A.** 4000 nM

**Q.** And the fraction unbound [10]?
**A.** 0.16

**Q.** And the bioavailability [11]?
**A.** 4%

**Q.** And the fraction unbound [12]?
**A.** 0.19

**Q.** Which results are given for `Cc1cnc(Nc2ccc(F)c(C(F)(F)F)c2)nc1Nc1ccc2oc(=O)[nH]c2c1`?
**A.** IC50 [5]: 503 nM; IC50 [7]: > 10000 nM; IC50 [9]: 700 nM

**Q.** For `Cc1cnc(Nc2ccc(C#N)cc2)nc1Nc1ccc2oc(=O)[nH]c2c1`, which inhibition in vivo at 40 mg/kg [1] is on record?
**A.** 0%

**Q.** With `COc1cc(Nc2ncc(C)c(Nc3ccc4oc(=O)[nH]c4c3)n2)cc(C)c1C` as the compound, how does the inhibition in vivo at 5 mg/kg [6] read?
**A.** 68%

**Q.** What about the IC50 [5] of the same compound?
**A.** 1110 nM

**Q.** And the IC50 [7]?
**A.** > 10000 nM

**Q.** And the inhibition in vivo at 40 mg/kg [1]?
**A.** 90%

**Q.** What about the IC50 [9] of the same compound?
**A.** 2900 nM

**Q.** And the Ki [13]?
**A.** 6000 nM

**Q.** Which inhibition in vivo at 40 mg/kg [1] does the source give for `Cc1cnc(Nc2cccc(C#N)c2)nc1Nc1ccc2oc(=O)[nH]c2c1` here?
**A.** 1%

**Q.** Which inhibition in vivo at 20 mg/kg [14] does the source give for `COc1cc(Nc2ncc(C)c(Nc3ccc4oc(=O)[nH]c4c3)n2)cc(C)c1F` [IFIDANCITINIB] here?
**A.** 94%

**Q.** What about the inhibition in vivo at 2.5 mg/kg [15] of the same compound?
**A.** 8%

**Q.** And the IC50 [16]?
**A.** 8 nM

**Q.** And the inhibition in vivo at 5 mg/kg [6]?
**A.** 43%

**Q.** And the IC50 [5]?
**A.** 490 nM

**Q.** What about the IC50 [17] of the same compound?
**A.** 915 nM

**Q.** What about the IC50 [18] of the same compound?
**A.** 417 nM

**Q.** What about the IC50 [7] of the same compound?
**A.** > 10000 nM

**Q.** And the IC50 [8]?
**A.** 20 nM

**Q.** And the IC50 [19]?
**A.** 923 nM

**Q.** What about the inhibition in vivo at 40 mg/kg [1] of the same compound?
**A.** 92%

**Q.** What about the IC50 [20] of the same compound?
**A.** 12 nM

**Q.** And the inhibition in vivo at 10 mg/kg [21]?
**A.** 75%

**Q.** What about the IC50 [22] of the same compound?
**A.** 2.1 nM

**Q.** What about the IC50 [9] of the same compound?
**A.** > 10000 nM

**Q.** And the IC50 [23]?
**A.** 20 nM

**Q.** And the Ki [13]?
**A.** 1000 nM

**Q.** What about the bioavailability [11] of the same compound?
**A.** 28%

**Q.** And the IC50 [24]?
**A.** 12 nM

**Q.** What about the IC50 [25] of the same compound?
**A.** 1190 nM

**Q.** And the IC50 [26]?
**A.** 451 nM

**Q.** And the clearance [27]?
**A.** 47 mL/min/kg

**Q.** What does the source list for `Cc1cnc(Nc2ccc(N3CCOCC3)nc2)nc1Nc1ccc2oc(=O)[nH]c2c1`?
**A.** IC50 [8]: 22 nM; inhibition in vivo at 40 mg/kg [1]: 36%; bioavailability [11]: < 1%
